{"source": "patent US20170056380A1", "about": "“Systems, Methods, Techniques, and Compounds in Research and Treatment of Portal Hypertension and other Conditions” (priority 2014, published 2017)", "key": {"eNOS [1]": {"molecular_target": "T1, eNOS (Rattus norvegicus, UniProt Q62600)", "T1 construct": "endogenous in cells; host or cells: primary liver sinusoidal endothelial cells from male Sprague-Dawley rats (normal or bile-duct-ligated)", "T1 sequence (Q62600 1-1202)": "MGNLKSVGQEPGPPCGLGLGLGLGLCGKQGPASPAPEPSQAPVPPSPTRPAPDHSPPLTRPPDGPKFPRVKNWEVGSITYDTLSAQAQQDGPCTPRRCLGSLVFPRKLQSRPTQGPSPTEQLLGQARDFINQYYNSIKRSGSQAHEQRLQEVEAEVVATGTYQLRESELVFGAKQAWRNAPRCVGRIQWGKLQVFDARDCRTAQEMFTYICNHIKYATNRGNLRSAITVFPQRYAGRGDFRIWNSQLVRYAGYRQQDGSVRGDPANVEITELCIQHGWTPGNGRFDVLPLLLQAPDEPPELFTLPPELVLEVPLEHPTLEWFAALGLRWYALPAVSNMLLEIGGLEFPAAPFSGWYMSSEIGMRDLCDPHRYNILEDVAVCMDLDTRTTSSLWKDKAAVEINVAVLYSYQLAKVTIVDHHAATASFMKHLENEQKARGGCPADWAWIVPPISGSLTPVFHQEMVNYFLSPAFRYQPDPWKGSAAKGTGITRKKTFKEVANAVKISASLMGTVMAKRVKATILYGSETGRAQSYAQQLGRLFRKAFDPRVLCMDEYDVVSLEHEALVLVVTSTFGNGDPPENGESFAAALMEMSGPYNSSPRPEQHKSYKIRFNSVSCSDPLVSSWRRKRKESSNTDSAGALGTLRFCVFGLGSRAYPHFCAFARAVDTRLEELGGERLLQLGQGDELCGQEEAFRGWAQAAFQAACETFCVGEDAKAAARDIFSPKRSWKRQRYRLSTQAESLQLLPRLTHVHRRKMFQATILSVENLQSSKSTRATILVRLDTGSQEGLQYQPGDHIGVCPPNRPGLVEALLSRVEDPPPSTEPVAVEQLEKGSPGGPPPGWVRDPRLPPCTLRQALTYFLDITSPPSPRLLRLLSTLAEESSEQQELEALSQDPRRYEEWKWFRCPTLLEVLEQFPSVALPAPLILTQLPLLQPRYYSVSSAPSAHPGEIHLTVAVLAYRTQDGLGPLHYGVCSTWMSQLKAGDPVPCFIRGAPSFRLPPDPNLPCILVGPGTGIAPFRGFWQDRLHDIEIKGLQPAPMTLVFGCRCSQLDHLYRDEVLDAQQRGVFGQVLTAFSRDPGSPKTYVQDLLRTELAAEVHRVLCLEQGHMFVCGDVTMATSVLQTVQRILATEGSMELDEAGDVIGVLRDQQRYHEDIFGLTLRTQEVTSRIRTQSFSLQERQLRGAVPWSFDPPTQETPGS", "test": "NOS activity assay (conversion of L-[3H]arginine to L-[3H]citrulline) in sinusoidal endothelial cell lysates", "format": "cell-based", "conditions": "cicletanine 100 nM plus inhibitor", "protocol": "(§1) Cell isolation and culture. Sinusoidal endothelial cells were isolated from male Sprague-Dawley rats (450-500 g) (Harlan, Indianapolis, Ind.). In brief, after in situ perfusion of the liver with 20 mg/100 mg pronase (Roche Molecular Biochemicals, Indianapolis, Ind.), followed by collagenase (Worthington Biochemical, Lakewood, N.J.), dispersed cell suspensions were removed from a layered discontinuous density gradient of 8.2 and 15.6% Accudenz (Accurate Chemical and Scientific, Westbury, N.Y.), further purified by centrifugal elutriation (18 ml/min flow), and were grown in medium containing 20% serum (10% horse/calf). The purity of endothelial cells was documented by their uptake of fluorescently labeled di-l-acetoacetylated low-density lipoprotein as described (21). Only primary sinusoidal endothelial isolates of >95% purity were used for study. Experiments were performed with cells frorrr a minimum three different isolations (for all experiments).\n(§2) Animal model of liver injury and portal hypedension. Liver injury and portal hypertension were induced by performing bile duct ligation in 450- to 500-gram male retired breeder Sprague-Dawley rats as described in Liu and 20- to 25-gram male BALB/c mice. Briefly, bile duct ligation was performed by surgical isolation and ligation of the common bile duct. This model creates a portal-based fibrogenic response and portal hypertension 10-14 days after surgery (Liu). For study of injured sinusoidal endothelial cells, we used the rat model of bile duct ligation (10-14 days postsurgery); for in vivo study (primarily to conserve the use of active compound), we used the mouse model of bile duct ligation (examining portal pressure 4 wk postsurgery). In sham-operated rats or mice, laparotomy without isolation and section of the bile duct was performed. Studies were approved by the local Institutional Animal Care and Use Committees. Portal pressure measurement. Portal hypertension was induced in male BALB/c mice by bile duct ligation as above. Cicletanine (5 mg·kg^−1·day^−1) or vehicle was given by gavage as a single daily dose for 10 days before portal pressure measurement as described in Liue. In brief, mice were anesthetized, and an intravenous catheter (Becton Dickinson Vascular Access, Sandy, Utah) was introduced in the portal vein and secured with a silk tie. A calibrated low-pressure transducer (Digi-Med, Louisville, Ky.) was connected to the portal vein catheter, and portal pressure was recorded continuously using the Digi-Med Integrator 200 System (Digi-bled).\nNOS activity assay. NOS activity from sinusoidal endothelial cell lysates was assessed by measuring the conversion of L-[3H]arginine to L-[3H]citrulline as described (6) per the manufacturer's instructions (Cayman Chemical). In brief, triplicate samples of cell lysates were incubated with a reaction buffer containing 3 pmol of L-[3H]arginine (45 Ci/mmol), 0-50 μM arginine, 1 mM NADPH, 100 nM calmodulin (CaM), 2 mM CaCl2, and 30 μM BH4 in a volume of 50-100 μl at room temperature for 30 min and at 37° C. for an additional 30 min in the presence and absence of 1 mM NG-nitro-L-arginine methyl ester (L-NAME). […] Radiolabeled counts per minute of generated L-citrulline were measured and used to determine L-NAME-inhibitable NOS activity (thus, each experiment included total counts and background counts). […] The reductase activities of sinusoidal endothelial cells with or without cicletanine exposure were determined using the NADPH-dependent cytochrome c assay. […]"}, "protein kinase G (PKG)": {"system": "protein kinase G (PKG)", "test": "Phospho-VASP immunoblotting for PKG activity in stellate cells alone or cocultured with sinusoidal endothelial cells", "format": "cell-based, rat", "conditions": "coculture, L-NAME 1 μM 4 h, then cicletanine 100 nM", "protocol": "For coculture experiments, freshly isolated stellate cells and freshly isolated sinusoidal endothelial cells were isolated separately and mixed together on collagen-coated plates and cultured for 5 days. Sinusoidal endothelial cells were plated at a density of 200,000 cells/cm2, and stellate cells were at a density of 65,000 cells/cm2.\n(§3) Immunoblotting, Immunoblotting was performed by using specified primary antibodies, including anti-eNOS antibody (1:1,000; BD Transduction Laboratories, San Jose, Calif.), anti-phospho-eNOS-Ser^1177 (1:1,000; BD Transduction Laboratories or Cell Signaling Technology), anti-phospho-Akt, anti-Akt (Cell Signaling Technology, Beverly, Mass.), and horseradish peroxidase-conjugated secondary antibody. Specific signals were visualized using enhanced chemiluminescence as per the manufacturer's instructions and were scanned and quantitated with standard software."}, "[2]": {"system": "NO production in sinusoidal endothelial cells", "test": "NO measurement (nitrite in conditioned medium of sinusoidal endothelial cells)", "format": "cell-based, rat", "conditions": "for effect on cicletanine-induced NO production: PD-98059 10 μM 30 min, then cicletanine 100 nM 2 h", "protocol": "as §1, §2\nNO measurement. To assess NO production, we analyzed the release of nitrite, the stable breakdown product of NO, using a nitrite/nitrate assay kit (Cayman Chemicals, Ann Arbor, Mich.), following the manufacturer's instructions. Briefly, conditioned medium from sinusoidal endothelial cells with or without cicletanine treatment were loaded on a 96-well plate and mixed with both enzyme cofactor and nitrate reductase. After incubation at room temperature for 3 h, 100 μl Griess reagent mix were added to each well. After 10 more minutes at room temperature, the absorbance of each well was determined on a microplate reader at 540 nm, and the nitrite concentrations were deduced from a standard curve."}, "eNOS [3]": {"system": "eNOS", "test": "eNOS phosphorylation (Ser1177) and total eNOS by immunoblotting in sinusoidal endothelial cells", "format": "cell-based, rat", "conditions": "PD-98059 10 μM 30 min, then cicletanine 100 nM 2 h", "protocol": "as §1, §3, §2"}}}
{"smiles": "COC(=O)[C@@H](N)CCCNC(=N)N[N+](=O)[O-]", "note": "[L-NAME, NG-nitro-L-arginine methyl ester]", "values": [{"measurement": "effect on cicletanine-induced eNOS activity", "setting": "eNOS [1]", "result": "inhibitable"}, {"measurement": "effect on cicletanine-stimulated VASP phosphorylation", "setting": "protein kinase G (PKG)", "result": "inhibited"}, {"measurement": "effect on nitrite production", "setting": "[2]; L-NAME 1 μM preexposure 4 h, then cicletanine 2 h", "result": "inhibited"}]}
{"smiles": "Cc1ncc2c(c1O)COC2c1ccc(Cl)cc1", "note": "(centres unmarked) [S-cicletanine]", "values": [{"measurement": "production of nitrite, (+) isomer compared with (−) isomer", "setting": "[2]; comparison of isomers", "result": "more effective than the (−) isomer of cicletanine"}]}
{"smiles": "COc1cccc(-c2cc(=O)c3ccccc3o2)c1N", "note": "[PD-98059]", "values": [{"measurement": "effect on cicletanine-induced eNOS phosphorylation", "setting": "eNOS [3]", "result": "blocked"}, {"measurement": "effect on cicletanine-induced eNOS phosphorylation", "setting": "eNOS [3]; listed as PD-098059", "result": "abolished"}, {"measurement": "effect on cicletanine-induced NO production", "setting": "[2]", "result": "blocked"}, {"measurement": "effect on cicletanine-induced NO production", "setting": "[2]; listed as PD-098059", "result": "abolished"}]}
